Data taken from US5659055A, “Cytoprotective fatty moiety compounds” (Virginia Commonwealth University, priority 1995, dated 1997).

System: PLA2 derived from plasma, sperm, platelets, human synovial fluid and N. naja cobra venom
Test: In vitro inhibition of PLA2 from a variety of sources (FIG. 8)
Assay type: biochemical

Which “in vitro inhibition of PLA2 from different sources” value does the source give for `CCCCCCC(C/C=C\CCCCCCCC(=O)O)OC(=O)CCCCCCCCC(=O)O` (stereo not shown) [RISE-1, Ricinoleic Acid--Sebacyl Ester] here?
Its value is “dose related, selective in vitro inhibition”.
